Reference: ChEMBL document CHEMBL1201862, “PubChem BioAssay data set” (2004)
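Dose response: 5 concentrations. Exposure: 48 h. Format: 96-well plates. Endpoint: linear interpolation; highest concentration if not reached. Abbreviation: GI50, concentration required for 50% inhibition of growth.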 Active and inactive are the calls of the source. Cut-off read from the data, not from the text of the source: active = GI50 up to about 1.1 µM and inactive = higher. *1 amine or outer side, *2 acyl side, *3 side chain or, on linkers, in order; H or OH if unused. Where a SMILES comes first, the peptide text is derived from it. The star is where a group is joined. γGlu = O=C(O)[CH](CCC(=O)[*:2])N[*:1]; NHOH = ON*

Assays:
Experiment in all cases: NCI tumour cell line growth inhibition, 48 h
786-0 = test system: 786-0
A498 = test system: A498
A549 = test system: A549
CCRF-CEM = test system: CCRF-CEM
DU-145 = test system: DU-145
HL-60 = test system: HL-60
HOP-92 = test system: HOP-92
M14 = test system: M14
MDA-MB-435 = test system: MDA-MB-435
MOLT-4 = test system: MOLT-4
NCI-H226 = test system: NCI-H226
NCI-H522 = test system: NCI-H522
OVCAR-4 = test system: OVCAR-4
OVCAR-5 = test system: OVCAR-5
OVCAR-8 = test system: OVCAR-8
SF-295 = test system: SF-295
SK-MEL-28 = test system: SK-MEL-28
TK-10 = test system: TK-10
U-251 = test system: U-251
UACC-62 = test system: UACC-62

| SMILES | GI50 (786-0) | GI50 (A498) | GI50 (A549) | GI50 (CCRF-CEM) | GI50 (DU-145) | GI50 (HL-60) | GI50 (HOP-92) | GI50 (M14) | GI50 (MDA-MB-435) | GI50 (MOLT-4) | GI50 (NCI-H226) | GI50 (NCI-H522) | GI50 (OVCAR-4) | GI50 (OVCAR-5) | GI50 (OVCAR-8) | GI50 (SF-295) | GI50 (SK-MEL-28) | GI50 (TK-10) | GI50 (U-251) | GI50 (UACC-62) |
| --- | --- | --- | --- | --- | --- | --- | --- | --- | --- | --- | --- | --- | --- | --- | --- | --- | --- | --- | --- | --- |
| N#CC(C#N)=Cn1c(=S)[nH]c2ccccc21 | > 100 µM (inactive) | > 100 µM (inactive) | > 100 µM (inactive) | > 100 µM (inactive) | > 100 µM (inactive) | > 100 µM (inactive) | 77.8 µM (inactive) | > 100 µM (inactive) | > 100 µM (inactive) | > 100 µM (inactive) | > 100 µM (inactive) | > 100 µM (inactive) | > 100 µM (inactive) | > 100 µM (inactive) | > 100 µM (inactive) | > 100 µM (inactive) | > 100 µM (inactive) | > 100 µM (inactive) | > 100 µM (inactive) | > 100 µM (inactive) |
| CCCCCCCCCCCC(=O)N(CCCCCCCCC)CC(O)C(O)C(OC1OC(CO)C(O)C(O)C1O)C(O)CO (stereo not given) | 17.5 µM (inactive) | 23.1 µM (inactive) | 21 µM (inactive) | 24 µM (inactive) | 18.5 µM (inactive) | 25.6 µM (inactive) | 18.6 µM (inactive) | 19.4 µM (inactive) | 17.7 µM (inactive) | 23.2 µM (inactive) | 20.4 µM (inactive) | 22.1 µM (inactive) | 21 µM (inactive) | 22.7 µM (inactive) | 20.6 µM (inactive) | 18.4 µM (inactive) | 19.2 µM (inactive) | 15.2 µM (inactive) | 20.4 µM (inactive) | 17.7 µM (inactive) |
| ClC1=C(Cl)C(Cl)(Cl)SS1 | > 4.41 µM (inactive) | > 10 µM (inactive) | > 10 µM (inactive) | 0.879 µM (active) | > 10 µM (inactive) | 2.24 µM (inactive) | > 5.57 µM (inactive) | 3.8 µM (inactive) | > 10 µM (inactive) | 1.31 µM (inactive) | > 10 µM (inactive) | 2.88 µM (inactive) | > 5.93 µM (inactive) | > 10 µM (inactive) | > 6.41 µM (inactive) | > 10 µM (inactive) | > 10 µM (inactive) | > 5.86 µM (inactive) | > 10 µM (inactive) | > 10 µM (inactive) |
| O=C1/C(=C/c2ccc(F)cc2)CNC/C1=C\c1ccc(F)cc1 | 0.762 µM (active) | 2.25 µM (inactive) | 2.92 µM (inactive) | 0.445 µM (active) | 1.75 µM (inactive) | 0.383 µM (active) | 3.61 µM (inactive) | 1.99 µM (inactive) | 2.49 µM (inactive) | 2.11 µM (inactive) | 2.82 µM (inactive) | 1.53 µM (inactive) | 2.09 µM (inactive) | 2.88 µM (inactive) | 2.07 µM (inactive) | 2.09 µM (inactive) | 1.05 µM (active) | 2.21 µM (inactive) | 0.41 µM (active) | 2.32 µM (inactive) |
| NC(CCC(=O)NC(CCC(=O)NO)C(=O)NCC(=O)O)C(=O)O (stereo not given) (γGlu-Glu(NHOH)-Gly-OH; configuration not given here) | > 100 µM (inactive) | > 100 µM (inactive) | > 100 µM (inactive) | > 100 µM (inactive) | > 100 µM (inactive) | > 100 µM (inactive) | > 100 µM (inactive) | > 100 µM (inactive) | > 100 µM (inactive) | > 100 µM (inactive) | > 100 µM (inactive) | > 100 µM (inactive) | > 100 µM (inactive) | > 100 µM (inactive) | > 100 µM (inactive) | > 100 µM (inactive) | > 100 µM (inactive) | > 100 µM (inactive) | > 100 µM (inactive) | > 100 µM (inactive) |
